Key:
[1] = tested on: THP-1; test: Proteome profile (cytokine array) of conditioned media from differentiated THP-1 cells; format: cell-based, Human
[2] = tested on: MCF-7 breast cancer cells; test: BrdU proliferation assay in MCF-7 breast cancer cell line; format: cell-based; settings: 24 hours
[3] = tested on: Osteoclasts from RAW264.7 macrophages; test: Estrogen-like activity: TRAP activity by ELISA in osteoclasts; format: cell-based, murine; settings: RANKL-differentiated osteoclasts; 24 h; 1 nM Estradiol or 10 ng/ml spike proteins

Row | SMILES | effect on spike-induced IL-8 up-regulation (in words) [1] | effect on CHI3L1 up-regulation (in words) ([1]; co-treatment with spike and/or estradiol, 24 h) | effect on OPN upregulation (in words) ([1]; co-treatment with spike, 24 h) | cell proliferation, Mean ([2]; peptides 10 ug/ml, spike 10 ng/ml, raloxifene 2 μM) | effect on estradiol- and spike-induced proliferation (in words) ([2]; co-treatment with raloxifene 2 μM) | TRAP levels, Mean [3]
1 | O=C(c1ccc(OCCN2CCCCC2)cc1)c1c(-c2ccc(O)cc2)sc2cc(O)ccc12 [ral, Raloxifene] | effective in counteracting the effect of spike | able to counteract only the effects of spike alone | able to counteract the effects of spike alone | 109.5 percentage of control | counteracted | 
2 | C[C@]12CC[C@@H]3c4ccc(O)cc4CC[C@H]3[C@@H]1CC[C@@H]2O [Estradiol] |  |  |  |  |  | 0.25 U/L

Source: US20250282831A1, “NOVEL PROTEIN AND NUCLEIC ACID SEQUENCES FOR COVID-19 VACCINES” (Dompe' Farmaceutici SPA, priority 2021, published 2025)
